Patent US20190160035A1, “METHOD OF TREATMENT” (QBIOTICS LIMITED, priority 2016, published 2019)

What was measured:
[1] = tested on: cutaneous Mast Cell Tumor (MCT); test: Example 3: long term follow up of cohort 1 dogs for tumor recurrence; type: in vivo; for Tumor recurrence at case follow-up post treatment: key: Nil=no tumor recurrence
Experimental: The dogs of cohort 1 in Example 2, treated with 1.0 mg Compound 1 per mL, were followed up post-treatment.
Dog GCV-209 was treated by surgical removal of residual tumor soon after study completion (Day 21).

[2] = tested on: MCT (cutaneous and subcutaneous); test: Example 5: Compound 1 injection with oral prednisolone and antihistamine co-therapy, RECIST v.1.1 tumor response; type: in vivo, Canis lupus familiaris (dog)
Excerpt: This study investigates the efficacy and safety of Compound 1 injection for MCT treatment in the presence of corticosteroids administered under defined clinical situations.
Dogs were selected for the study if they met the criteria in Table 1 (Example 1) but where the dog has at least one MCT.
Wherever possible, the tumor and a 2 cm border surrounding the tumor was shaved prior to treatment. To deliver the drug, the needle of the dosing syringe was inserted into the tumor at the injection point and moved in a radial manner in 2- and 3-dimensions with drug delivered to the tumor mass. Study dogs were clinically examined at 2-4 and 24 hours, and 7 (+2), 14 (+2) and 28 (+2) days post-treatment (and unscheduled visits at attending veterinarian discretion).
Each supervising veterinarian was given latitude to provide and record prophylactic and supportive medications as deemed appropriate for managing potential paraneoplastic events and tumor site necrosis following Compound 1 treatment. However, prednisolone and antihistamines were used as co-therapy. Prednisolone therapy commenced on Day −1 and continued for a further 7 days. H1 and H2 antihistamine therapy (chlorpheniramine and famotidine respectively) commenced on the morning of drug treatment and continued for a further 6 days (see Table 23).
RECIST v.1.1 results are summarised in Table 28 which also includes a measure of neoadjuvant prednisolone action (potential tumor shrinkage) between screening and immediate pre-treatment tumor evaluation. Sixteen (16) dogs and eighteen (18) tumors were treated. Raw data for RECIST assessment was collected on Day 0 (immediately pre-treatment) and on Day 28 for fifteen (15) cases. […] With the remaining three (3) cases (C05-T-18, C05-V-01, and C05-V-02), the dogs were not available on Day 28 for RECIST assessment. For dog C05-T-18, the injection site was measured as CR on Days 21 and 37. […] For dog C05-V-01, the injection site was measured as PR on Days 21 and 37 (55% and 60% RECIST reduction respectively). […] For dog […], due to the progressive nature of disease, the animal was removed from study on Day 21.

[3] = Example 5: adverse events (VCOG-CTCAE classification); type: in vivo, Canis lupus familiaris (dog)
Excerpt: With the exception of swelling and pain, local tissue pathology as a result of treatment (i.e. tumor necrosis) was not considered an adverse event (AE). AEs reported such as transitory post treatment lethargy, listlessness and apathy are generally considered to be the result of the powerful local inflammatory response and systemic activation of the dog's immune response during the treatment response phase. In this study, 72 AEs were identified in 14 event types (see Table 28). The majority of identified AEs (59 out of 72; 82%) were represented by the ‘mild’ VCOG-CTCAE classification Grade 1 with no intervention required. With the exception of dogs C05-T-04 and C05-T-17 (described previously), a level of minimal medical intervention was required in only 3 cases. Dog C05-T-05 was medicated with metronidazole for transient diarrhea reported on Day 14 post-treatment; dog C05-T-07 was medicated with an antibiotic course (amoxicillin/clavulanic acid) for skin pustulation on the ventral abdomen (distant to drug injection site); and dog C05-T-09 was prescribed a prophylactic antibiotic course (cephalexin) on Day 21 on observation by the referral practice of ‘inflamed and angry’ lesion edges and having an impression smear of wound surface with ‘neutrophils and round cells (without granules)’. These findings for dog C05-T-09 of neutrophil presence is perhaps not unexpected due to the mechanism of action of the drug. The dog was reported having normal demeanour at this time. With the exception of the limb swelling in dog C05-T-17 (degranulation reaction), all reported AEs were transient in nature—resolved by 24-48 h post treatment.

Structure (SMILES): C/C=C(\C)C(=O)O[C@@H]1[C@@H](C)[C@@]2(O)[C@H]([C@@H]3C(C)(C)[C@]13OC(=O)[C@@H](C)CC)[C@@H]1O[C@]1(CO)[C@@H](O)[C@]1(O)C(=O)C(C)=C[C@H]12 [Compound 1, 12-tigloyl-13-(2-methylbutanoyl)-6,7-epoxy-4,5,9,12,13,20-hexahydroxy-1-tigliaen-3-one]
- Tumor recurrence at the treatment site during the post treatment examination period ([1]; 8 dogs, examined out to 11.9 to 15.0 months post treatment): No tumor recurrence
- Tumor recurrence at case follow-up post treatment ([1]; cohort 1 dogs (1.0 mg/mL), one value per dog and examination, months 1-14 post treatment): Nil
- Day on which tumor recurrence was reported ([1]; dog NVC-110, 42 days after study completion): 63 days
- Share of cases with a CR RECIST result ([2]; 14 out of 18 cases): 78%
- Number of cases with progressive disease (PD) ([2]; Day 28, 15 cases assessed): 1
- Number of cases with complete response (CR) ([2]; Day 28, 15 cases assessed, prednisolone, chlorpheniramine, famotidine co-therapy): 13
- Tumor course beyond Day 7 post treatment ([2]; dog C05-T-09, Patnaik Grade III cutaneous MCT): continued to grow
- RECIST reduction ([2]; dog C05-V-01, Day 21): 55%
- RECIST reduction ([2]; dog C05-V-01, Day 37): 60%
- RECIST reduction of residual mass ([2]; dog C05-V-01, Day 57): 70%
- RECIST result of injection site ([2]; dog C05-V-01, Days 21 and 37): PR (partial response (PR, at least 30% decrease in the longest diameter of target lesion))
- Residual tumor after initial tumor reduction ([2]; dog C05-V-02, vulvar Patnaik Grade III MCT): residual tumor mass was evident by Day 21
- Number of cases with partial response (PR) ([2]; of 18 cases enrolled): 1
- Number of cases with progressive disease ([2]; of 18 cases enrolled): 2
- Number of cases with a CR RECIST result ([2]; out of eighteen (18) treated cases): 14
- Number of AEs identified ([3]; 18 cases, 14 event types): 72
- Share of AEs of VCOG-CTCAE Grade 1 ([3]; 59 out of 72): 82%
- Apathy: VCOG-CTCAE Grade classification (no. of animals) ([3]; Grade 1): 1 (2)
- Bruising at treatment site: VCOG-CTCAE Grade classification (no. of animals) ([3]; Grade 1): 1 (13)
- Inappetance: VCOG-CTCAE Grade classification (no. of animals) ([3]; Grade 1): 1 (6)
- Lethargy: VCOG-CTCAE Grade classification (no. of animals) ([3]; Grade 1): 1 (5)
- Listless: VCOG-CTCAE Grade classification (no. of animals) ([3]; Grade 1): 1 (2)
- Local swelling at treatment site: VCOG-CTCAE Grade classification (no. of animals) ([3]; Grade 1): 1 (17)
- Pain associated with treatment site: VCOG-CTCAE Grade classification (no. of animals) ([3]; Grade 1): 1 (12)
- Polydipsia: VCOG-CTCAE Grade classification (no. of animals) ([3]; Grade 1): 1 (1)
- Ringworm: VCOG-CTCAE Grade classification (no. of animals) ([3]; Grade 1): 1 (1)
- Transient Diarrhoea: VCOG-CTCAE Grade classification (no. of animals) ([3]; Grade 1): 1 (1)
- Vomiting: VCOG-CTCAE Grade classification (no. of animals) ([3]; Grade 1): 1 (2)
- Bruising at treatment site: VCOG-CTCAE Grade classification (no. of animals) ([3]; Grade 2): 2 (1)
- Cranial abdominal pain: VCOG-CTCAE Grade classification (no. of animals) ([3]; Grade 2): 2 (1)
- Inappetance: VCOG-CTCAE Grade classification (no. of animals) ([3]; Grade 2): 2 (1)
- Injection site lesion antimicrobial prophylaxis: VCOG-CTCAE Grade classification (no. of animals) ([3]; Grade 2): 2 (1)
- Lethargy: VCOG-CTCAE Grade classification (no. of animals) ([3]; Grade 2): 2 (1)
- Local swelling at treatment site: VCOG-CTCAE Grade classification (no. of animals) ([3]; Grade 2): 2 (1)
- Pain associated with treatment site: VCOG-CTCAE Grade classification (no. of animals) ([3]; Grade 2): 2 (1)
- Skin pustulation: VCOG-CTCAE Grade classification (no. of animals) ([3]; Grade 2): 2 (1)
- Transient Diarrhoea: VCOG-CTCAE Grade classification (no. of animals) ([3]; Grade 2): 2 (1)
- Vomiting: VCOG-CTCAE Grade classification (no. of animals) ([3]; Grade 2): 2 (1)
- Apathy: Incidence (%) ([3]; all dogs (18 cases)): 11.1%
- Apathy: No. of dogs experiencing this event ([3]; all dogs (18 cases)): 2
- Bruising at treatment site: Incidence (%) ([3]; all dogs (18 cases)): 77.8%
- Bruising at treatment site: No. of dogs experiencing this event ([3]; all dogs (18 cases)): 14
- Cranial abdominal pain: Incidence (%) ([3]; all dogs (18 cases)): 5.6%
- Cranial abdominal pain: No. of dogs experiencing this event ([3]; all dogs (18 cases)): 1
- Inappetance: Incidence (%) ([3]; all dogs (18 cases)): 38.9%
- Inappetance: No. of dogs experiencing this event ([3]; all dogs (18 cases)): 7
- Injection site lesion antimicrobial prophylaxis: Incidence (%) ([3]; all dogs (18 cases)): 5.6%
- Injection site lesion antimicrobial prophylaxis: No. of dogs experiencing this event ([3]; all dogs (18 cases)): 1
- Lethargy: Incidence (%) ([3]; all dogs (18 cases)): 33.3%
- Lethargy: No. of dogs experiencing this event ([3]; all dogs (18 cases)): 6
- Listless: Incidence (%) ([3]; all dogs (18 cases)): 11.1%
- Listless: No. of dogs experiencing this event ([3]; all dogs (18 cases)): 2
- Local swelling at treatment site: Incidence (%) ([3]; all dogs (18 cases)): 100.0%
- Local swelling at treatment site: No. of dogs experiencing this event ([3]; all dogs (18 cases)): 18
- Pain associated with treatment site: Incidence (%) ([3]; all dogs (18 cases)): 72.2%
- Pain associated with treatment site: No. of dogs experiencing this event ([3]; all dogs (18 cases)): 13
- Polydipsia: Incidence (%) ([3]; all dogs (18 cases)): 5.6%
- Polydipsia: No. of dogs experiencing this event ([3]; all dogs (18 cases)): 1
- Ringworm: Incidence (%) ([3]; all dogs (18 cases)): 5.6%
- Ringworm: No. of dogs experiencing this event ([3]; all dogs (18 cases)): 1
- Skin pustulation: Incidence (%) ([3]; all dogs (18 cases)): 5.6%
- Skin pustulation: No. of dogs experiencing this event ([3]; all dogs (18 cases)): 1
- Transient Diarrhoea: Incidence (%) ([3]; all dogs (18 cases)): 11.1%
- Transient Diarrhoea: No. of dogs experiencing this event ([3]; all dogs (18 cases)): 2
- Vomiting: Incidence (%) ([3]; all dogs (18 cases)): 16.7%
- Vomiting: No. of dogs experiencing this event ([3]; all dogs (18 cases)): 3
- Time by which reported AEs resolved post treatment ([3]; except limb swelling in dog C05-T-17): 24 to 48 h
- Number of AEs of ‘mild’ VCOG-CTCAE Grade 1 (no intervention required) ([3]; out of 72 AEs): 59
- Cases requiring minimal medical intervention ([3]; with the exception of dogs C05-T-04 and C05-T-17): 3
